Active and inactive are the calls of the source. The rule behind the calls is not given here.
How the values were obtained:
[1] = system: RAW264.7; test: Antiinflammatory activity against LPS-induced mouse RAW264.7 cells assessed as inhibition of NO production preincubated for 1 hr followed by LPS stimulation and measured after 24 hrs by Greiss reagent based assay; assay type: functional, cell-based
[2] = system: RAW264.7; test: Binding affinity to MD2 in mouse RAW264.7 cells assessed as inhibition of LPS/MD2 colocalization at 10 uM preincubated for 1 hr followed by incubation with FITC-conjugated LPS for 1 hr by DAPI staining based confocal microscopy; assay type: cell-based; conditions: time 2.0 hrs
[3] = system: RAW264.7; test: Antiinflammatory activity against LPS-induced mouse RAW264.7 cells assessed as reduction in IL-6 production at 10 uM preincubated for 1 hr followed by LPS stimulation and measured after 24 hrs by ELISA relative to control; assay type: functional; conditions: time 25 hrs
[4] = system: RAW264.7; test: Antiinflammatory activity against LPS-induced mouse RAW264.7 cells assessed as reduction in IL-6 production preincubated for 1 hr followed by LPS stimulation and measured after 24 hrs by ELISA; assay type: functional, cell-based; conditions: dose 2.5-10 µM, time 25.0 hrs
[5] = system: RAW264.7; test: Antiinflammatory activity against LPS-induced mouse RAW264.7 cells assessed as reduction in TNF-alpha production preincubated for 1 hr followed by LPS stimulation and measured after 24 hrs by ELISA; assay type: functional, cell-based; conditions: dose 2.5-10 µM, time 25.0 hrs
[6] = system: RAW264.7; test: Antiinflammatory activity against LPS-induced mouse RAW264.7 cells assessed as reduction in TNF-alpha production at 10 uM preincubated for 1 hr followed by LPS stimulation and measured after 24 hrs by ELISA relative to control; assay type: functional; conditions: time 25 hrs
[7] = system: RAW264.7; test: Antiinflammatory activity against LPS-induced mouse RAW264.7 cells assessed as downregulation of COX2 protein expression at 2.5 to 10 uM by western blot analysis; assay type: functional, cell-based; conditions: dose 2.5-10 µM
[8] = system: RAW264.7; test: Antiinflammatory activity against LPS-induced mouse RAW264.7 cells assessed as downregulation of iNOS protein expression at 2.5 to 10 uM by western blot analysis; assay type: functional, cell-based; conditions: dose 2.5-10 µM
[9] = system: RAW264.7; test: Inhibition of MD2 in LPS-stimulated mouse RAW 264.7 cells assessed as reduction in p65 phosphorylation by western blot analysis; conditions: dose 2.5-10 µM
[10] = system: RAW264.7; test: Inhibition of MD2 in LPS-stimulated mouse RAW 264.7 cells assessed as reduction in IKKbeta phosphorylation by western blot analysis; conditions: dose 2.5-10 µM
[11] = system: RAW264.7; test: Inhibition of MD2 in LPS-stimulated mouse RAW264.7 cells assessed as reduction in p65 nuclear translocation by measuring red fluorescence intensity in nucleus at 10 uM preincubated for 1 hr followed by LPS stimulation and measured after 6 hrs by DAPI staining based confocal microscopy; conditions: time 7.0 hrs
[12] = system: RAW264.7; test: Downregulation of TLR4 expression in mouse RAW264.7 cells at 2.5 to 10 uM by western blot analysis; assay type: functional, cell-based; conditions: dose 2.5-10 µM
[13] = system: RAW264.7; test: Downregulation of MD2 expression in mouse RAW264.7 cells at 2.5 to 10 uM by western blot analysis; assay type: functional, cell-based; conditions: dose 2.5-10 µM
[14] = system: RAW264.7; test: Inhibition of MD2 in LPS-stimulated mouse RAW264.7 cells assessed as reduction in ERK phosphorylation at 2.5 to 10 uM measured by immunoblot analysis; conditions: dose 2.5-10 µM
[15] = system: RAW264.7; test: Inhibition of MD2 in LPS-stimulated mouse RAW264.7 cells assessed as reduction in JNK phosphorylation at 2.5 to 10 uM measured by immunoblot analysis; conditions: dose 2.5-10 µM
[16] = system: RAW264.7; test: Inhibition of MD2 in LPS-stimulated mouse RAW264.7 cells assessed as reduction in p38 phosphorylation at 2.5 to 10 uM measured by immunoblot analysis; conditions: dose 2.5-10 µM
[17] = system: RAW264.7; test: Antiinflammatory activity against LPS-induced MD2-knockdown mouse RAW264.7 cells assessed as reduction in TNF-alpha secretion pretreated for 1 hr followed by LPS stimulation and measured after 24 hrs by ELISA; assay type: functional, cell-based; conditions: time 25.0 hrs
[18] = biological target: T1, Toll-like receptor 4 (Mus musculus) (UniProt Q9QUK6); test: Binding affinity to TLR4 in mouse RAW264.7 cells assessed as inhibition of LPS/TLR4 colocalization at 10 uM preincubated for 1 hr followed by incubation with FITC-conjugated LPS for 1 hr by DAPI staining based confocal microscopy; assay type: cell-based; conditions: time 2.0 hrs
T1 sequence (whole entry): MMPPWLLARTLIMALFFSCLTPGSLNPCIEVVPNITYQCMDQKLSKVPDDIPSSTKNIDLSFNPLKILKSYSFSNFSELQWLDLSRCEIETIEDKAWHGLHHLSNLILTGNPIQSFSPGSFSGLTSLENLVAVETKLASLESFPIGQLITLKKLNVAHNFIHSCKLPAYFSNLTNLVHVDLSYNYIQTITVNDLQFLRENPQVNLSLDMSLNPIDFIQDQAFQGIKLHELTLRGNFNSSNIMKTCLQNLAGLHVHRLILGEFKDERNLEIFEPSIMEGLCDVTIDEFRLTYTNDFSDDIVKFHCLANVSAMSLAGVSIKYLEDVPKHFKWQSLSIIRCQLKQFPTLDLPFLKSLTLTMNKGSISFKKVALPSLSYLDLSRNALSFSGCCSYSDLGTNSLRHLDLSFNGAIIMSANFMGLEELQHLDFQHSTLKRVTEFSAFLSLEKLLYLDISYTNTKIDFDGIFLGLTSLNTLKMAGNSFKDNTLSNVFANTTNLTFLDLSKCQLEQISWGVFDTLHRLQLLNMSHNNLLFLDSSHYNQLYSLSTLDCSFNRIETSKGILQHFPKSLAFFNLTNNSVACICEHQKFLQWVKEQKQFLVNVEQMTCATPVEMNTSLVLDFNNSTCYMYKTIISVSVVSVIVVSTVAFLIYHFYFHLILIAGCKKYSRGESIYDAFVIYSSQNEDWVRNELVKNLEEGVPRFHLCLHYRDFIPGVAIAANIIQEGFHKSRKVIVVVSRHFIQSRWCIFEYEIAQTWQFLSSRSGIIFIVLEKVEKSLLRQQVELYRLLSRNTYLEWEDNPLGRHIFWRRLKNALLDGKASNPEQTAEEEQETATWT

[19] = system: RAW264.7; test: Antiinflammatory activity against LPS-induced MD2-knockdown mouse RAW264.7 cells assessed as reduction in TNF-alpha mRNA expression by qRT-PCR analysis; assay type: functional, cell-based
[20] = system: RAW264.7; test: Antiinflammatory activity against LPS-induced MD2-knockdown mouse RAW264.7 cells assessed as reduction in IL-6 mRNA expression by qRT-PCR analysis; assay type: functional, cell-based
[21] = system: RAW264.7; test: Antiinflammatory activity against LPS-induced MD2-knockdown mouse RAW264.7 cells assessed as reduction in COX-2 mRNA expression by qRT-PCR analysis; assay type: functional, cell-based
[22] = system: RAW264.7; test: Antiinflammatory activity against LPS-induced MD2-knockdown mouse RAW264.7 cells assessed as reduction in iNOS mRNA expression by qRT-PCR analysis; assay type: functional, cell-based
[23] = system: RAW264.7; test: Inhibition of MD2 in mouse RAW264.7 cells assessed as reduction in LPS-induced TLR4/MD2 complex formation preincubated for 30 mins followed by LPS stimulation for 30 mins by co-immunoprecipitation analysis; assay type: cell-based; conditions: dose 2.5-10 µM, time 60.0 min
[24] = organism: Homo sapiens; test: Binding affinity to MD2 (unknown origin) assessed as association constant by surface plasmon resonance assay
[25] = organism: Homo sapiens; test: Binding affinity to MD2 (unknown origin) assessed as dissociation constant by surface plasmon resonance assay
[26] = Binding affinity to MD2 (unknown origin) assessed as equilibrium dissociation constant by surface plasmon resonance assay; design: species or system Homo sapiens

C=CC(C)(C)c1[nH]c2cccc3c2c1C[C@@H]1[C@@H]3[C@@H](OC(C)=O)[C@H](C)CN1C
IC50 [1]: 22.8 µM

COc1ccc2c(c1)c(CC(=O)O)c(C)n2C(=O)c1ccc(Cl)cc1 [INDOMETHACIN]
IC50 [1]: 11 µM

C=CC(C)(C)C(=O)Nc1cccc2c1C(=O)C[C@H]1NC[C@@H](C)[C@H](OC(C)=O)[C@H]21
IC50 [1]: 53.3 µM

C=CC(C)(C)C(=O)Nc1cccc2c1C(=O)C[C@@H]1[C@@H]2[C@@H](OC(C)=O)[C@H](C)CN1C
IC50 [1]: 43.2 µM

C=CC(C)(C)C(=O)Nc1cccc2c1C(=O)C[C@H]1NC[C@H](C)[C@@H](OC(C)=O)[C@@H]21
IC50 [1]: 7.83 µM

C=CC(C)(C)c1[nH]c2cccc3c2c1C[C@H]1NC[C@@H](C)[C@H](OC(C)=O)[C@H]31
IC50 [1]: 60.4 µM

C=CC(C)(C)C(=O)Nc1cccc2c3cc(C)cn(C)c-3cc(=O)c12
IC50 [1]: 9.47 µM

C=CC(C)(C)C(=O)Nc1cccc2c1C(=O)C[C@@H]1[C@H]2[C@H](OC(C)=O)[C@@H](C)CN1C
Activity [2]: Active | inhibition at 10 µM [3]: 84% | IC50 [1]: 3.48 µM | Activity [4]: Dose-Dependent Effect | Activity [5]: Dose-Dependent Effect | inhibition at 10 µM [6]: 68.2% | Activity [7]: Active | Activity [8]: Active | inhibition [9]: Dose-Dependent Effect | inhibition [10]: Dose-Dependent Effect | inhibition [11]: Active | inhibition [12]: Active | inhibition [13]: Active | inhibition [14]: Active | inhibition [15]: Active | inhibition [16]: Active | Activity [17]: inactive | Activity [18]: inactive | Activity [19]: inactive | Activity [20]: inactive | Activity [21]: inactive | Activity [22]: inactive | inhibition [23]: Dose-Dependent Effect | Ka [24]: 373 M⁻¹ s⁻¹ | Kdiss [25]: 0.0054 s⁻¹ | Kd [26]: 14.5 µM

Reference: ChEMBL document CHEMBL4831509, “Identification, semisynthesis, and anti-inflammatory evaluation of 2,3-seco-clavine-type ergot alkaloids from human intestinal fungus Aspergillus fumigatus CY018” (Eur J Med Chem, 2021)
